Experimental data: US6593480B2 (Abbott Laboratories, priority 1999, dated 2003)

Key:
[1] = target: T1, Human glucocorticoid receptors (Homo sapiens, UniProt P04150); experiment: Radioligand filter binding assay, displacement of 3(H)-dexamethasone from human glucocorticoid receptor cytosol; conditions: 1.7 μM test compound, inhibition of 3(H)-dex binding to hGR; for inhibition at 1.7 µM: read-out: GR BINDING (% Inhibition @ 1.7 μM)
T1 construct: made in house; host or cells: Sf9 insect cells, recombinant baculovirus (BAC-TO-BAC)
T1 sequence (P04150 1-777): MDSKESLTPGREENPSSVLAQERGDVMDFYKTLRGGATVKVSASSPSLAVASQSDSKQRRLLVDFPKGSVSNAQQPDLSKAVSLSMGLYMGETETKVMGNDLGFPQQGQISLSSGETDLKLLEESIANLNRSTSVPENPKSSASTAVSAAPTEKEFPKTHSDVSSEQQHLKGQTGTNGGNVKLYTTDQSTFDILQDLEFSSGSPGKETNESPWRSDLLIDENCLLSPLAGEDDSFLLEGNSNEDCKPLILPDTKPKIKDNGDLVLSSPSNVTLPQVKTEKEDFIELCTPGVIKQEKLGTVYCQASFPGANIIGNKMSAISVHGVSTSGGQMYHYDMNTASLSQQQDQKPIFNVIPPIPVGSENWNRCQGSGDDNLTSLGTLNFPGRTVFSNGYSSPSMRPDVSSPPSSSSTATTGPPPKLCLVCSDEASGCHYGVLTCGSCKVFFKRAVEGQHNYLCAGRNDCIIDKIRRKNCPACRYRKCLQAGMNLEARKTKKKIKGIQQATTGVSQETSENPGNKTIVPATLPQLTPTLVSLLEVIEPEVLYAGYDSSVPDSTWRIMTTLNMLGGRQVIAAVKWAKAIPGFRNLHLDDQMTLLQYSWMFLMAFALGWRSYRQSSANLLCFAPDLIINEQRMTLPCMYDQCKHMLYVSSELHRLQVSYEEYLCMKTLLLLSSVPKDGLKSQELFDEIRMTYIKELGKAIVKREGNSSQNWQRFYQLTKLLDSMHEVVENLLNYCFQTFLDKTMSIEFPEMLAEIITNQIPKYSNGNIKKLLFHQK

[2] = target: T2, progesterone receptor (PR) (Homo sapiens, UniProt P06401); experiment: Radioligand binding assay with progesterone receptor cytosol (similar protocol)
T2 sequence (P06401 1-933): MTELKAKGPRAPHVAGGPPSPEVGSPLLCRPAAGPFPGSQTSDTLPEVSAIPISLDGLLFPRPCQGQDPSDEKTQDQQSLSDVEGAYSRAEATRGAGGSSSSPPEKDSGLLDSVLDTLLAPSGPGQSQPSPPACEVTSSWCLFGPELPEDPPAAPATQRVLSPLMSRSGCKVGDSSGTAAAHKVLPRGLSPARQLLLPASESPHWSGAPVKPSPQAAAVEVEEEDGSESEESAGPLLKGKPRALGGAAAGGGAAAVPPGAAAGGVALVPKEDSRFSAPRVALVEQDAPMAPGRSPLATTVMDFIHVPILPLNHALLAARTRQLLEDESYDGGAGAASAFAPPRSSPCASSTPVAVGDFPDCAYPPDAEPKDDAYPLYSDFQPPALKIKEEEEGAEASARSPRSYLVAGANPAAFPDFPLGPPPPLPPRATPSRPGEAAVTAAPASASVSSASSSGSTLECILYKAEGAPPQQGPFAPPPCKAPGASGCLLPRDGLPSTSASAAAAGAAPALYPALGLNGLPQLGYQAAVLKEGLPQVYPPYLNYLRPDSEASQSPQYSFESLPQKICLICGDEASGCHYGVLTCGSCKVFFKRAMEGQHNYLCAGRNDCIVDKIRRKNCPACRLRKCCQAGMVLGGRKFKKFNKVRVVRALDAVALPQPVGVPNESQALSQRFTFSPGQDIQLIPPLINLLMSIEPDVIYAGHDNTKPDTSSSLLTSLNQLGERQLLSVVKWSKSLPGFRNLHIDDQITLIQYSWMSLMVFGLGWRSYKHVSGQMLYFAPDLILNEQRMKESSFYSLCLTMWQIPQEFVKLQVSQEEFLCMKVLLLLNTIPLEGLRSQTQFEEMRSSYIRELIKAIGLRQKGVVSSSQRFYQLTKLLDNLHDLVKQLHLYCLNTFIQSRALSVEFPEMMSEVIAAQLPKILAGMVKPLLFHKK
Source text: Methods for Radioligand Binding Studies with Human Glucocorticoid and Progesterone Receptor Cytosol
A similar protocol was employed to measure affinity of the compounds of the present invention for progesterone receptor (PR).

[3] = test system: obese diabetic db/db transgenic mice; conditions: cited from earlier work

| Molecule | IC50 [2] | GR BINDING (% Inhibition @ 1.7 μM) [1] | also measured |
| --- | --- | --- | --- |
| COc1cccc2c1-c1ccc(NS(C)(=O)=O)c(C)c1C(c1cccc(C(F)(F)F)c1)O2 (stereo not shown) [Example 1, (1-methoxy-6-(3-trifluoromethyl)phenyl-7-methyl-6H-dibenzo(b,d)pyran-8-yl)methanesulfonamide] | 5.63 µM |  | inhibition at 1.7 µM [1]: 82.1%; melting point: 217 to 218 °C |
| CC#C[C@]1(O)CC[C@H]2[C@@H]3CCC4=CC(=O)CCC4=C3[C@@H](c3ccc(N(C)C)cc3)C[C@@]21C [mifepristone] |  |  | mRNA levels of PEPCK and glucose-6-phosphate in the liver ([3]; liver, db/db mice): reduces; reduction of plasma glucose levels ([3]; obese diabetic db/db transgenic mice): 50% |
| (1-methoxy-6-(3-carboethoxyphenyl)-6H-dibenzo(b,d)pyran-8-yl)methanesulfonamide [Example 51] | > 10 µM | 94.0% |  |
| COc1cccc2c1-c1ccc(NS(C)(=O)=O)c(Br)c1C(c1ccccc1)O2 (stereo not shown) [Example 2] | > 10 µM |  | inhibition at 1.7 µM [1]: 67.2% |
| (1-ethynyl-6-phenyl-6H-dibenzo(b,d)pyran-8-yl)methanesulfonamide [Example 36] | 2.24 µM | 95.0% |  |
| COc1cccc2c1-c1ccc(NS(C)(=O)=O)cc1C(c1ccc(C#N)cc1)O2 (stereo not shown) [Example 47] | 3.48 µM |  | inhibition at 1.7 µM [1]: 94.5% |
| CS(=O)(=O)Nc1ccc2c(c1)C(c1ccccc1)Oc1cccc(OC(F)F)c1-2 (stereo not shown) [Example 25, N-(1-difluoromethoxy-6-phenyl-6H-dibenzo[b,d]pyran-8-yl)methanesulfonamide] | 0.37 µM |  | inhibition at 1.7 µM [1]: 92.7% |
| COCCCCOc1cccc(C2Oc3cccc(OC)c3-c3ccc(NS(C)(=O)=O)cc32)c1 (stereo not shown) [Example 95, N-{1-methoxy-6-[3-(4-methoxybutoxy)phenyl]-6H-benzo[c]chromen-8-yl}methanesulfonamide] | > 1 µM |  | inhibition at 1.7 µM [1]: 90% |
| (1-methoxy-6-(4-carboethoxyphenyl)-6H-dibenzo(b,d)pyran-8-yl)methanesulfonamide [Example 52] | > 10 µM | 92.2% |  |
| (1-(2-propynyl)oxy-6-phenyl-6H-dibenzo(b,d)pyran-8-yl)methanesulfonamide [Example 45] | 2.16 µM | 91.2% |  |
| (1-cyano-6-phenyl-6H-dibenzo(b,d)pyran-8-yl)methanesulfonamide [Example 43] | 0.73 µM | 90.6% |  |

Second part, led by results:

| IC50 [2] | GR BINDING (% Inhibition @ 1.7 μM) [1] | Molecule | also measured |
| --- | --- | --- | --- |
| 0.97 µM | 86.7% | (1-methoxy-6-(inden-3-yl)-6H-dibenzo(b,d)pyran-8-yl)methanesulfonamide [Example 74] |  |
| 2.11 µM | 94.7% | (1-methoxy-6-(3-methoxyphenyl)-6H-dibenzo(b,d)pyran-8-yl)methanesulfonamide [Example 59] |  |
| 1 µM | 93.4% | (1-methoxy-6-cyclohexyl-6H-dibenzo(b,d)pyran-8-yl)methanesulfonamide [Example 55] |  |
| 0.28 µM |  | COCCCc1ccc(C2Oc3cccc(OC)c3-c3ccc(NS(C)(=O)=O)cc32)s1 (stereo not shown) [Example 138, N-{1-methoxy-6-[5-(3-methoxypropyl)-2-thienyl]-6H-benzo[c]chromen-8-yl}methanesulfonamide] | inhibition at 1.7 µM [1]: 92.5% |
| > 1 µM | 88.3% | (1-methoxy-6-(3-chloroprop-2-en-1-yl)-6H-dibenzo(b,d)pyran-8-yl)methanesulfonamide [Example 73] |  |
| 3.99 µM | 91.3% | (1-methoxy-6-(4-chlorophenyl)-6H-dibenzo(b,d)pyran-8-yl)methanesulfonamide [Example 61] |  |
| > 10 µM | 88.1% | (1-methoxy-4-methyl-6-phenyl-6H-dibenzo(b,d)pyran-8-yl)methanesulfonamide [Example 68] |  |
| 0.524 µM | 94.6% | (1-methoxy-6-(5-chlorothien-2-yl)-6H-dibenzo(b,d)pyran-8-yl)methanesulfonamide [Example 58] |  |
| 2.84 µM | 94.9% | (1-methoxy-2-hydroxy-6-phenyl-6H-dibenzo(b,d)pyran-8-yl)methanesulfonamide [Example 65] |  |
| 0.222 µM | 91.6% | (1,2-methylenedioxy-6-phenyl-6H-dibenzo(b,d)pyran-8-yl)methanesulfonamide [Example 66] |  |
| 0.34 µM | 89.5% | (1-methoxy-6-(2-bromoprop-2-en-1-yl)-6H-dibenzo(b,d)pyran-8-yl)methanesulfonamide [Example 71] |  |
| 1.85 µM | 90.1% | (1-methoxy-6-(5-chloropent-1-yl)-6H-dibenzo(b,d)pyran-8-yl)methanesulfonamide [Example 75] |  |
| > 10 µM | 92.8% | COc1cccc2c1-c1ccc(NS(C)(=O)=O)cc1C(c1ccc(Oc3ccc(Br)cc3)cc1)O2 (stereo not shown) [Example 153] |  |
